# From PubChem BioAssay (NCI)
#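 Test compounds were applied to cells in 96-well plates for 48 hours at 5 doses. TGI: total growth inhibition.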
# Tests used:
# Assay in all cases: NCI-60 cell line screen, 48 h
# 786-0 renal = system: 786-0 renal
# A498 renal = system: A498 renal
# A549 NSCLC = system: A549 NSCLC
# HCT-15 colon = system: HCT-15 colon
# MALME-3M melanoma = system: MALME-3M melanoma
# MDA-MB-231 breast = system: MDA-MB-231 breast
# MOLT-4 leukemia = system: MOLT-4 leukemia
# RPMI-8226 leukemia = system: RPMI-8226 leukemia
# SR leukemia = system: SR leukemia
# TK-10 renal = system: TK-10 renal
# UACC-257 melanoma = system: UACC-257 melanoma
Structure (SMILES),TGI (786-0 renal),TGI (A498 renal),TGI (A549 NSCLC),TGI (HCT-15 colon),TGI (MALME-3M melanoma),TGI (MDA-MB-231 breast),TGI (MOLT-4 leukemia),TGI (RPMI-8226 leukemia),TGI (SR leukemia),TGI (TK-10 renal),TGI (UACC-257 melanoma)
COc1ccc2c(c1)CCC(CN1CCN(CCOC(c3ccc(F)cc3)c3ccc(F)cc3)CC1)=C2,27.2 µM,48.1 µM,> 100 µM,57.8 µM,27.9 µM,31.8 µM,48.7 µM,36.9 µM,27.7 µM,44.4 µM,28.1 µM
CCOC(=O)c1ccc(N=C/C=C(\Nc2ccc(C(=O)OCC)cc2)c2ccc3ccccc3c2)cc1,64.1 µM,> 100 µM,> 100 µM,61.1 µM,43.6 µM,80.6 µM,16.1 µM,52.1 µM,41.6 µM,53.4 µM,92.3 µM
O=C(O)CCCN1CCCCC1,> 100 µM,> 100 µM,> 100 µM,> 100 µM,> 100 µM,> 100 µM,> 100 µM,> 100 µM,> 100 µM,> 100 µM,> 100 µM
CCN(CC)P1(=S)Oc2ccc3ccccc3c2-c2c(ccc3ccccc23)O1,> 100 µM,> 100 µM,> 100 µM,> 100 µM,> 100 µM,> 100 µM,> 100 µM,> 100 µM,> 100 µM,> 100 µM,> 100 µM
CCCCN(CCCC)CC(=O)c1ccc2cc(Cl)c3ccccc3c2c1,> 100 µM,46.9 µM,> 100 µM,53.3 µM,> 100 µM,> 100 µM,> 100 µM,> 100 µM,> 100 µM,> 100 µM,98.9 µM
COC(=O)c1c(C)nc(C)c(N=O)c1-c1ccccc1C(F)(F)F,31.5 µM,> 100 µM,> 100 µM,45.8 µM,30.2 µM,32.3 µM,> 100 µM,> 100 µM,> 100 µM,30 µM,32.8 µM
COc1ccccc1NC(=S)N/N=C(/c1ccccc1)c1ccccn1,18.7 µM,12.5 µM,16.3 µM,20.3 µM,17.3 µM,11.4 µM,0.403 µM,6.14 µM,1.34 µM,18.3 µM,1.13 µM
CC1OC(OC2C(CO)OC(O[C@H]3CC[C@@]4(C)C(=CC[C@H]5[C@@H]6C[C@@H]7O[C@](O)(CC[C@@H](C)COC8OC(CO)C(O)C(O)C8O)[C@@H](C)[C@@H]7[C@@]6(C)CC[C@@H]54)C3)C(OC3OC(C)C(O)C(O)C3O)C2O)C(O)C(O)C1O (some centres undefined),3.89 µM,> 100 µM,3.16 µM,3.91 µM,4.1 µM,14.8 µM,3.71 µM,10.2 µM,11 µM,22.8 µM,14.5 µM
Cc1nn(-c2ccccc2)c(C)c1/C=N/NC(=O)c1sc(=S)n(-c2ccc(Cl)cc2)c1N,59.9 µM,> 100 µM,> 100 µM,> 100 µM,> 100 µM,> 100 µM,> 100 µM,7.73 µM,> 100 µM,14.4 µM,> 100 µM
COc1ccc(N=NN2CCCC2)cc1,32.7 µM,> 100 µM,> 100 µM,60.7 µM,39.3 µM,47.7 µM,60.6 µM,74.1 µM,> 100 µM,> 100 µM,> 100 µM
CC(C)(C)c1cc(C2COC(=O)COCCOCC(=O)OCCOCCO2)cc(C(C)(C)C)c1O (centres undefined),32.5 µM,> 100 µM,> 100 µM,> 100 µM,> 100 µM,> 100 µM,> 100 µM,> 100 µM,64.2 µM,32.4 µM,> 100 µM
Cc1[nH]n(C(=O)c2ccccc2O)c(=O)c1/C=C1\C(=O)C=Cc2ccccc21,10.1 µM,11.2 µM,38.5 µM,> 100 µM,16.5 µM,26.8 µM,> 100 µM,31.1 µM,> 100 µM,> 100 µM,26.6 µM
Cc1ccc(Nc2ncnc3sc(SCc4ccccc4)nc23)cc1,> 100 µM,> 100 µM,> 100 µM,> 100 µM,> 100 µM,> 100 µM,> 100 µM,> 100 µM,> 100 µM,> 100 µM,> 100 µM
COc1cc(O)c(C(=O)/C=C/c2ccc(O)cc2)cc1Oc1ccc(C(=O)/C=C/c2ccc(O)cc2)c(O)c1,5.73 µM,5.68 µM,15.3 µM,3.68 µM,6.37 µM,9.75 µM,> 100 µM,6.49 µM,> 100 µM,11.3 µM,21.7 µM
CCOC(=O)C1(C(=O)OCC)C[C@H]2CON=C2[C@@H]1c1ccc(C(F)(F)F)cc1,> 100 µM,99.3 µM,> 100 µM,> 100 µM,> 100 µM,> 100 µM,> 100 µM,> 100 µM,> 100 µM,> 100 µM,> 100 µM
CC1(c2cccc(C3CCC4(C=CC3=O)OCCO4)c2)OCCO1 (centres undefined),11 µM,33.5 µM,34 µM,14.7 µM,10.9 µM,26 µM,12 µM,28.9 µM,12.5 µM,20.3 µM,21.5 µM
S=C1c2cc(Cl)ccc2NC(=NC2CCCC2)C2CSCN12 (centres undefined),> 100 µM,> 100 µM,> 100 µM,> 100 µM,> 100 µM,> 100 µM,> 100 µM,> 100 µM,> 100 µM,> 100 µM,> 100 µM
Cc1nc2c(=O)[nH]c(=O)nc-2n(CCO)c1C,> 100 µM,> 100 µM,> 100 µM,> 100 µM,> 100 µM,> 100 µM,> 100 µM,> 100 µM,> 100 µM,> 100 µM,> 100 µM
CCOC(=O)Nc1ccc(S(=O)(=O)Nc2ccc(Br)cc2)cc1,> 100 µM,48.4 µM,> 100 µM,> 100 µM,> 100 µM,93.5 µM,> 100 µM,> 100 µM,50.4 µM,> 100 µM,> 100 µM
COC(=O)CP1(=O)OC2C(C3CCC2(C)C3(C)C)N1c1cc(C(F)(F)F)cc(C(F)(F)F)c1 (centres undefined),41.7 µM,> 100 µM,> 100 µM,97.5 µM,58.1 µM,43.7 µM,59 µM,42.5 µM,62.6 µM,75.2 µM,> 100 µM
CCOC(=O)c1cc(-c2ccc(OC)c(OC)c2)cn1C,> 10 µM,> 10 µM,> 10 µM,> 10 µM,> 10 µM,> 10 µM,> 10 µM,> 10 µM,> 10 µM,> 10 µM,> 10 µM
CCOC(=O)c1c(OCC)[nH]c(=O)c(C(c2ccc(F)cc2)c2c(O)c(C(=O)OCC)c(OCC)[nH]c2=O)c1O,39.7 µM,26.2 µM,29.3 µM,40.4 µM,29.5 µM,29.8 µM,71 µM,58.3 µM,29 µM,67.7 µM,37.3 µM
C(=N\NC1=NCCCN1)/c1ccc(-c2cn3cc(/C=N/NC4=NCCCN4)ccc3n2)cc1,> 100 µM,> 78.5 µM,> 100 µM,> 100 µM,87.4 µM,> 100 µM,11.8 µM,> 88.6 µM,> 29 µM,> 100 µM,> 100 µM
C#CCNC(Cc1ccccc1)C(=O)O (centres undefined),> 100 µM,> 100 µM,> 100 µM,> 100 µM,> 100 µM,> 100 µM,> 100 µM,> 100 µM,> 100 µM,> 100 µM,> 100 µM
